pIC50: −log10 of the molar value.

The target in this assay is T1, rat NaP2b (SLC34A2) (Rattus norvegicus, UniProt Q9JJ09).
T1 construct: host or cells: HEK293
T1 sequence (Q9JJ09 1-695): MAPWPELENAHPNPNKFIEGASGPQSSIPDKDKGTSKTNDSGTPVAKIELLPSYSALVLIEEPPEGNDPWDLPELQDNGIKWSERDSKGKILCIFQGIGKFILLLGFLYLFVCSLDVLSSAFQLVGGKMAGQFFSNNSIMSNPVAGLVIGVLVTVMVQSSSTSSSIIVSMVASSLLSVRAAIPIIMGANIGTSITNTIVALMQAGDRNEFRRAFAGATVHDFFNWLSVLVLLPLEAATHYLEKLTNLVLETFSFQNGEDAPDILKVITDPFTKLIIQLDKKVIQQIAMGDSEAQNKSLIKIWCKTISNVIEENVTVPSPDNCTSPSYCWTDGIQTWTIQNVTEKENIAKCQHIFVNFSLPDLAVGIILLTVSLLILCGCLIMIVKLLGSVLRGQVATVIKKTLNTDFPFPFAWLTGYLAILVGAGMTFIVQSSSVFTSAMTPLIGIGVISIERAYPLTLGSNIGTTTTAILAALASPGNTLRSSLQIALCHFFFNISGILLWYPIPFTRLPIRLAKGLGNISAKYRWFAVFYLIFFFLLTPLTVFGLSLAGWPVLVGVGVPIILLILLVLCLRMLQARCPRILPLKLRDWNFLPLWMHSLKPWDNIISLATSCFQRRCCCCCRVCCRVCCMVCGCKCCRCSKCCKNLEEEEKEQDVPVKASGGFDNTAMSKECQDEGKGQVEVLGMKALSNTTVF
The assay can be described thus: Inhibition of NaP2b-mediated Pi (33P) uptake in transfected HEK293 cells, rat NaP2b. The format is cell-based. Conditions: 33P Pi uptake, 0.1 mM phosphate, value given as pIC50 range. Put shortly: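 HEK293 cells were transiently transfected with NaP2b cDNA using Lipofectamine and grown near confluence. Compounds were tested at twelve concentrations from 0.1 nM to 30 uM in duplicate, and 33P-phosphate uptake was counted by scintillation after lysis. Results are expressed as pIC50.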

A word on the pIC50: it is −log10 of the IC50, conventionally taken in molar units. `CC(NC(=O)c1ccnc(-c2cc(N3CCCCC3)ccc2NC(=O)c2cccc(CSCCC(=O)O)c2)c1)c1cccc(C(F)(F)F)c1` (stereo not drawn) [Example 77, 3-(3-(4-(piperidin-1-yl)-2-(4-(1-(3-(trifluoromethyl)phenyl)ethylcarbamoyl)pyridin-2-yl)phenylcarbamoyl)benzylthio)propanoic acid]: the pIC50 was 5.10 to 6.00.
Then `O=C(O)CCSCc1cccc(C(=O)Nc2ccc(N3CCCCC3)cc2-c2cc(C(=O)NCc3ccc(N4CCOCC4)cc3)ccn2)c1` [Example 78, 3-(3-(2-(4-(4-Morpholinobenzylcarbamoyl)pyridin-2-yl)-4-(piperidin-1-yl)-phenylcarbamoyl)benzylthio) propanoic acid], with 4.50 to 5.00; and `O=C(O)CCSCc1cccc(C(=O)Nc2ccc(N3CCCCC3)cc2-c2cc(C(=O)NCc3ccc(-n4cccn4)cc3)ccn2)c1` [Example 79, 3-(3-((2-(4-((4-(1H-Pyrazol-1-yl)benzyl)carbamoyl)pyridin-2-yl)-4-(piperidin-1-yl)phenyl)carbamoyl)benzylthio)propanoic acid], with 4.50 to 5.00; and `CC(=O)N1CCN(CCN(C)C(=O)c2cccc(C(=O)Nc3ccc(N4CCCCC4)cc3-c3cc(C(=O)NCc4cccc(C(F)(F)F)c4)ccn3)c2)CC1` [Example 81, N1-(2-(4-Acetylpiperazin-1-yl)ethyl)-N1-methyl-N3-(4-(piperidin-1-yl)-2-(4-(3-(trifluoromethyl)benzylcarbamoyl)pyridin-2-yl)phenyl)isophthalamide], with 5.10 to 6.00.
The same measure for `CN1CCN(CCN(C)C(=O)c2cccc(C(=O)Nc3ccc(N4CCCCC4)cc3-c3cc(C(=O)NCc4cccc(C(F)(F)F)c4)ccn3)c2)CC1` [Example 82, N1-Methyl-N1-(2-(4-methylpiperazin-1-yl)ethyl)-N3-(4-(piperidin-1-yl)-2-(4-((3-(trifluoromethyl)benzyl)carbamoyl)pyridin-2-yl)phenyl)isophthalamide]: 5.10 to 6.00; for `CN(CCN1CCN(S(C)(=O)=O)CC1)C(=O)c1cccc(C(=O)Nc2ccc(N3CCCCC3)cc2-c2cc(C(=O)NCc3cccc(C(F)(F)F)c3)ccn2)c1` [Example 83, N1-methyl-N1-(2-(4-(methylsulfonyl)piperazin-1-yl)ethyl)-N3-(4-(piperidin-1-yl)-2-(4-(3-(trifluoromethyl)benzylcarbamoyl)pyridin-2-yl)phenyl)isophthalamide]: 5.10 to 6.00.
The same measure for `O=C(O)CCSCc1cccc(C(=O)Nc2ccc(N3CCCCC3)cc2-c2cc(C(=O)Nc3cccc(C(F)(F)F)c3)ccn2)c1` [Example 84]: 5.10 to 6.00.
In the case of `Cc1cc(C(=O)NCc2cccc(C(F)(F)F)c2)cc(-c2cc(N3CCCCC3)ccc2NC(=O)c2cccc(CSCCC(=O)O)c2)n1` [Example 85], the pIC50 was 5.10 to 6.00.
Then `O=C(O)CCSCc1cccc(C(=O)Nc2ccc(N3CCCCC3)cc2-c2cc(C(=O)NCc3cccc(C(F)(F)F)c3)cc(Cl)n2)c1` [Example 86], with 5.10 to 6.00.
`O=C(O)CCSCc1cccc(C(=O)Nc2ccc(N3CCCCC3)cc2-c2cc(C(=O)NCc3cccc(C(F)(F)F)c3)ncn2)c1` [Example 87] showed a pIC50 of 4.50 to 5.00.
The same measure for `O=C(O)CCSCc1cccc(C(=O)Nc2ccc(N3CCCCC3)cc2-c2nccc(C(=O)NCc3cccc(C(F)(F)F)c3)c2F)c1` [Example 88]: 4.50 to 5.00; for `O=C(O)CCSCc1cccc(C(=O)Nc2ccc(N3CCCCC3)cc2-c2cc(C(=O)NCc3cccc(C(F)(F)F)c3)c(F)cn2)c1` [Example 89]: 5.10 to 6.00.
Then `O=C(O)CCSCc1cccc(C(=O)Nc2ccc(N3CCCCC3)cc2-c2cc(C(=O)NCc3cccc(C(F)(F)F)c3)c(Cl)cn2)c1` [Example 90], with 4.50 to 5.00; and `O=C(NCc1cccc(C(F)(F)F)c1)c1ccnc(-c2cc(N3CCCCC3)ccc2NC(=O)c2cccc(CSCCCS(=O)(=O)O)c2)c1` [Example 91], with 4.50 to 5.00; and `CC(C)(CCO)SCc1cccc(C(=O)Nc2ccc(N3CCCCC3)cc2-c2cc(C(=O)NCc3cccc(C(F)(F)F)c3)ccn2)c1` [Example 92], with 5.10 to 6.00.
Then `O=C(O)CCSCc1cccc(C(=O)Nc2ccc(N3CCCCC3)cc2-c2cc(C(F)(F)c3cccc(C(F)(F)F)c3)ccn2)c1` [Example 93], with 4.50 to 5.00; and `O=C(O)CCSCc1cccc(C(=O)Nc2ccc(N3CCCCC3)cc2-c2cc(Oc3cccc(C(F)(F)F)c3)ccn2)c1` [Example 94], with 4.50 to 5.00.
Consider `C[C@@H]1CN(c2ccc(NC(=O)c3cccc(C(=O)N(C)CCN4CCOCC4)c3)c(-c3cc(C(=O)NCc4cccc(C(F)(F)F)c4)ccn3)c2)C[C@H](C)O1` [Example 95], for which the pIC50 was 4.50 to 5.00.
The same measure for `CN(CCN1CCOCC1)C(=O)c1cccc(C(=O)Nc2ccc(N3CCN(c4ncccn4)CC3)cc2-c2cc(C(=O)NCc3cccc(C(F)(F)F)c3)ccn2)c1` [Example 96]: 4.50 to 5.00.
The same measure for `O=C(O)CCSCc1cccc(C(=O)Nc2ccc(N3CCCCC3)cc2-c2cc(OCc3cccc(C(F)(F)F)c3)ccn2)c1` [Example 98]: 4.50 to 5.00.
Then `CN(CCN1CCOCC1)C(=O)c1cccc(C(=O)Nc2ccc(N3CCCCC3)cc2-c2cc(OCc3cccc(C(F)(F)F)c3)ccn2)c1` [Example 99], with 4.50 to 5.00; and `CC(C)OCCOc1ccc(NC(=O)c2cccc(C(=O)N(C)CCN3CCOCC3)c2)c(-c2cc(C(=O)NCc3cccc(C(F)(F)F)c3)ccn2)c1` [Example 101], with 5.10 to 6.00; and `COC[C@@H]1CCCN1c1ccc(NC(=O)c2cccc(C(=O)N(C)CCN3CCOCC3)c2)c(-c2cc(C(=O)NCc3cccc(C(F)(F)F)c3)ccn2)c1` [Example 102], with 4.50 to 5.00.
`COC[C@H]1CCCN1c1ccc(NC(=O)c2cccc(C(=O)N(C)CCN3CCOCC3)c2)c(-c2cc(C(=O)NCc3cccc(C(F)(F)F)c3)ccn2)c1` [Example 103] showed a pIC50 of 4.50 to 5.00.
The same measure for `CN(CCN1CCOCC1)C(=O)c1cccc(C(=O)Nc2ccc(N3CCCCC3)cc2-c2cc(NCc3cccc(C(F)(F)F)c3)ccn2)c1` [Example 104]: 4.50 to 5.00.
Regarding `C[C@H]1CCCCN1c1ccc(NC(=O)c2cccc(C(=O)N(C)CCN3CCOCC3)c2)c(-c2cc(C(=O)NCc3cccc(C(F)(F)F)c3)ccn2)c1` [Example 105], the negative-log IC50 (pIC50) is 5.10 to 6.00.
Then `CN(CCN1CCOCC1)C(=O)c1cccc(C(=O)Nc2ccc(N3CCCCC3)cc2-c2cc(C(F)(F)CCc3cccc(C(F)(F)F)c3)ccn2)c1` [Example 106], with 4.50 to 5.00; and `CN(CCN1CCOCC1)C(=O)c1cccc(C(=O)Nc2ccc(N3CCC(C)(C)CC3)cc2-c2cc(C(=O)NCc3cccc(C(F)(F)F)c3)ccn2)c1` [Example 108], with 4.50 to 5.00.
Then `CN(CCN1CCOCC1)C(=O)c1cccc(C(=O)Nc2ccc(N3CCCCC3)cc2-c2cc(SCc3ccccc3)ccn2)c1` [Example 109], with 5.10 to 6.00.
The same measure for `CN(CCc1ccccn1)C(=O)c1cccc(C(=O)Nc2ccc(N3CCCCC3)cc2-c2cc(C(=O)NCc3cccc(C(F)(F)F)c3)ccn2)c1` [Example 110]: 5.10 to 6.00.
`CN(CCN1CCOCC1)C(=O)c1cccc(C(=O)Nc2ccc(N3CC[C@H]4CCCC[C@@H]4C3)cc2-c2cc(C(=O)NCc3cccc(C(F)(F)F)c3)ccn2)c1` [Example 111] gave a pIC50 of 4.50 to 5.00.
The same measure for `O=C(O)CCCC1CCN(C(=O)c2cccc(C(=O)Nc3ccc(N4CCCCC4)cc3-c3cc(C(=O)NCc4cccc(C(F)(F)F)c4)ccn3)c2)CC1` [Example 112]: 5.10 to 6.00; for `O=C(O)CCCC1CCN(C(=O)CCCC2CCN(C(=O)c3cccc(C(=O)Nc4ccc(N5CCCCC5)cc4-c4cc(C(=O)NCc5cccc(C(F)(F)F)c5)ccn4)c3)CC2)CC1` [Example 113]: 5.10 to 6.00; for `CN(CCN1CCOCC1)C(=O)c1cccc(C(=O)Nc2ccc(N3CCC[C@H]4CCCC[C@@H]43)cc2-c2cc(C(=O)NCc3cccc(C(F)(F)F)c3)ccn2)c1` [Example 114]: 5.10 to 6.00.
Regarding `CCCN(CCC)c1ccc(NC(=O)c2cccc(C(=O)N(C)CCN3CCOCC3)c2)c(-c2cc(C(=O)NCc3cccc(C(F)(F)F)c3)ccn2)c1` [Example 116], the negative logarithm of the IC50 (pIC50) is 5.10 to 6.00.
Turning to `CN(CCN1CCOCC1)C(=O)c1cccc(C(=O)Nc2ccc(N3CCSCC3)cc2-c2cc(C(=O)NCc3cccc(C(F)(F)F)c3)ccn2)c1` [Example 118], the pIC50 is 5.10 to 6.00.
Then `O=C(O)Cc1cccc(SCc2cccc(C(=O)Nc3ccc(Cl)cc3-c3cc(C(=O)NCc4cccc(C(F)(F)F)c4)ccn3)c2)c1` [Example 119], with > 6.00; and `CN(C)c1ccc(NC(=O)c2cccc(CSCCC(=O)O)c2)c(-c2cc(C(=O)NCc3cccc(C(F)(F)F)c3)ccn2)c1` [Example 120], with 5.10 to 6.00.
Turning to `COc1cc(C(F)(F)F)ccc1CNC(=O)c1ccnc(-c2cc(N3CCCCC3)ccc2NC(=O)c2cccc(C(=O)N(C)CCN3CCOCC3)c2)c1` [Example 121, N1-(2-(4-((2-methoxy-4-(trifluoromethyl)benzyl)carbamoyl)pyridin-2-yl)-4-(piperidin-1-yl)phenyl)-N3-methyl-N3-(2-morpholinoethyl)isophthalamide], the pIC50 was 5.10 to 6.00.

The values are drawn from patent US20140023611A1 (priority 2010, published 2014).
